Measured values as given in patent US20250057873A1, “Intestinal Tumor Suppressor, PGE2 Production Inhibitor, and IL-22BP Production Promoter” (TOKYO UNIVERSITY OF SCIENCE FOUNDATION, priority 2021, published 2025).

Assays:
Dectin-1 [1] = molecular target: T1, Dectin-1 (Mus musculus, UniProt Q6QLQ4); test: Stimulation of Apc^Min/+ polyp-infiltrating leukocytes / CD11b+ cells with Curdlan, with or without laminarin pre-treatment, qPCR; format: cell-based; conditions: polyp-infiltrating leukocytes from Apc^Min/+ mice, Curdlan 20 hours, qPCR
T1 construct: CD11b^+ cells and CD11c^+ cells were purified from colorectal polyps with autoMACS; endogenous in cells; host or cells: primary CD11b+/CD11c+ cells or all polyp-infiltrating cells from colorectal/intestinal polyps of WT (C57BL/6J, AOM-DSS) or Apc^Min/+ mice
T1 sequence (Q6QLQ4 1-244): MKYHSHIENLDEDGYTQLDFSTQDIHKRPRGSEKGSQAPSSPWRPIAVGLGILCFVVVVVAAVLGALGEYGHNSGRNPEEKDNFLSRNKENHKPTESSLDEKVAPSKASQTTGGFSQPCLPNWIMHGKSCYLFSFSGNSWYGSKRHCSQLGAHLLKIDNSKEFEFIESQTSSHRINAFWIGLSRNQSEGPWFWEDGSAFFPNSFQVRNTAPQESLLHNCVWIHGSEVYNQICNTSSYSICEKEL
Method: FIG. 5f: All polyp-infiltrating cells of the Apc^Min/+ mice were collected, and were stimulated with Curdlan for 20 hours, and then the expression of the genes involved in the PGE2 synthesis was measured by qPCR. A laminarin treatment was performed for 4 hours before the Curdlan treatment.
FIG. 5g: Purified CD11b^+ polyp-infiltrating cells of the Apc^Min/+ mice were collected, and were stimulated with Curdlan for 20 hours, and then the expression of the genes involved in the PGE2 synthesis was measured by qPCR. A laminarin treatment was performed for 4 hours before the Curdlan treatment. The data in (FIGS. 5a to 5g) are representative of two independent experiments and expressed as mean±SD. *p<0.05, **p<0.01, and ***p<0.001.
Infiltrating cells in mouse/human colorectal tumor/non-tumor tissues (2×10^5) or mouse/human colorectal tumor/non-tumor tissue pieces (3 mm×3 mm cut) were cultured with Dectin-1 ligands Curdlan, OXCA, or laminarin, or with PGE2 stimulation for 20 h at 37° C. under 5% CO2 in 96-well flat-bottomed plates (Falcon, Becton Dickinson) in a volume of 0.2 ml RPMI containing 10% FBS and 1% streptomycin plus penicillin. After the culture, cells or tissues were collected and mRNA expression of tumor- or anti-tumor-associated genes was measured by qPCR described in Quantitative reverse transcription PCR section described later. […]

DECTIN-1 [2] = molecular target: T2, DECTIN-1 (Homo sapiens, UniProt Q9BXN2); test: Curdlan stimulation of human CRC tissues or cancer-infiltrating leukocytes, qPCR; format: cell-based; conditions: Curdlan 20 hours
T2 construct: endogenous in cells; host or cells: tumour-infiltrating cells and small tumour tissue pieces from surgical specimens of human CRC patients
T2 sequence (Q9BXN2 1-247): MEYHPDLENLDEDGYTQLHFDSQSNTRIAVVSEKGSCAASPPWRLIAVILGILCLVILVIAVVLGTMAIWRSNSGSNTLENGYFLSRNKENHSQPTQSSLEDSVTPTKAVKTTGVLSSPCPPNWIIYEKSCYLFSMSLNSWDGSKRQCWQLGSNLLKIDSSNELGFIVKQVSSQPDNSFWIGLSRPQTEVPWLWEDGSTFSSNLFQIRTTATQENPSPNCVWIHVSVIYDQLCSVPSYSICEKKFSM
Method: FIG. 7g: CRC samples were collected, and tumor-infiltrating cells were stimulated with Curdlan for 20 hours. In the case of the laminarin treatment, the cells were first treated with laminarin for 4 hours, and thereafter, were supplied with Curdlan and cultured. Expression of PGE2 synthesizing enzymes was determined by qPCR. Data are mean±SD of 3 wells.
FIG. 7h: CRC samples were collected, and tumor-infiltrating cells and normal tissue-infiltrating cells were stimulated with Curdlan for 20 hours. In the case of the laminarin treatment, the cells were first treated with laminarin for 4 hours, and thereafter, were supplied with Curdlan and cultured. Expression of CD33 was determined by qPCR. Data are mean±SD of 3 wells.
FIG. 13c: Fresh CRC specimens were collected after surgery, and small pieces of tumor tissues were stimulated with Curdlan for 20 hours. In the case of the laminarin treatment, the tissues were first treated with laminarin for 4 hours, and then Curdlan was added to the cultured tissues. The expression of the PGE2 synthase was determined by qPCR. The data are expressed as mean SD of 3 wells. *p<0.05, **p<0.01, and ****p<0.0001. […]

Dectin-1 [3] = molecular target: T1, Dectin-1; conditions: autoimmune-prone; cited from earlier work

Curdlan
expression of Ptges3, Ptgs1 and Ptgs2 (Dectin-1 [1]): significantly induced | PGE2 synthase gene expression (DECTIN-1 [2]; CRC tissues or cancer-infiltrating leukocytes): induction | expression of CD33 (DECTIN-1 [2]; tumor or normal tissue-infiltrating cells): upregulated | disease induction in SKG mice (Dectin-1 [3]): evokes arthritis, spondyloarthritis and ileitis
